Data from patent US20080207708A1, “Oxazole and Thiazole Compounds and Their Use in the Treatment of Pge2 Mediated Disorders” (GLAXO GROUP LIMITED, priority 2005, published 2008).
Counter-ions that a name gives are not always drawn.

What was measured:
EP1 receptors [1] = target: T1, EP1 receptors (Homo sapiens, UniProt P34995); assay: human EP1 calcium mobilisation assay (CHO-K1 cells, FLIPR, PGE2); format: cell-based; parameters: expressed in transfected cells; host or cells: CHO-K1 cells, pCIN vector; conditions: free bases or sodium salts; averages of a number of experiments; read-out: functional pKi value, human EP1 calcium mobilisation assay (converted)
T1 sequence (P34995 1-402): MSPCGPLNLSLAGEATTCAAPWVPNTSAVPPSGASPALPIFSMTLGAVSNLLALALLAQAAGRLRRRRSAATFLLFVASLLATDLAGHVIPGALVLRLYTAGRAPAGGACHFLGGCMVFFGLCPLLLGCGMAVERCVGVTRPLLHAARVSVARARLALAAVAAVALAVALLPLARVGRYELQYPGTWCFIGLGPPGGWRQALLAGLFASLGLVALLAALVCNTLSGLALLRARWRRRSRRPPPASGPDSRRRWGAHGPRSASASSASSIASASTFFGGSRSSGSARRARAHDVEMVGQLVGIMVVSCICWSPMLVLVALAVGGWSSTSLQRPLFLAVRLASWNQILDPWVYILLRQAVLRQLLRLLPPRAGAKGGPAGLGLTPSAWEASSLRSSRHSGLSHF
Description: Briefly, the antagonist properties of compounds are assessed by their ability to inhibit the mobilisation of intracellular calcium ([Ca^2+]i) in response to activation of EP1 or EP3 receptors by the natural agonist hormone prostaglandin E2 (PGE2). Increasing concentrations of antagonist reduce the amount of calcium that a given concentration of PGE2 can mobilise. The net effect is to displace the PGE2 concentration-effect curve to higher concentrations of PGE2. The amount of calcium produced is assessed using a calcium-sensitive fluorescent dye such as Fluo-4, AM and a suitable instrument such as a Fluorimetric Imaging Plate Reader (FLIPR). Increasing amounts of [Ca^2+]i produced by receptor activation increase the amount of fluorescence produced by the dye and give rise to an increasing signal. The signal may be detected using the FLIPR instrument and the data generated may be analysed with suitable curve-fitting software.
The human EP1 or EP3 calcium mobilisation assay (hereafter referred to as ‘the calcium assay’) utilises Chinese hamster ovary-K1 (CHO-K1) cells into which a stable (pCIN; BioTechniques 20 (1996): 102-110) vector containing either EP1 or EP3 cDNA has previously been transfected. Cells are cultured in suitable flasks containing culture medium such as DMEM:F-12 supplemented with 10% v/v foetal calf serum, 2 mM L-glutamine, 0.25 mg/ml geneticin, 100 μM flurbiprofen and 10 µg/ml puromycin. For assay, cells are harvested using a proprietary reagent that dislodges cells such as Versene. Cells are re-suspended in a suitable quantity of fresh culture media for introduction into a 384-well plate. Following incubation for 24 hours at 37° C. the culture media is replaced with a medium containing Fluo-4 and the detergent pluronic acid, and a further incubation takes place. Concentrations of compounds are then added to the plate in order to construct concentration-effect curves. This may be performed on the FLIPR in order to assess the agonist properties of the compounds. Concentrations of PGE2 are then added to the plate in order to assess the antagonist properties of the compounds. The data so generated may be analysed by means of a computerised curve-fitting routine. The concentration of compound that elicits a half-maximal inhibition of the calcium mobilisation induced by PGE2 (pIC50) may then be estimated.

EP1 receptors [2] = target: T1, EP1 receptors; assay: Binding assay for the human prostanoid EP1 receptor (competition with [3H]-PGE2); parameters: expressed in transfected cells; host or cells: CHO-K1 cells, membrane fraction; conditions: [3H]-PGE2 competition; averages of a number of experiments; read-out: pIC50 value, binding assay for the human prostanoid EP1 receptor (converted)
In short: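 Membranes from CHO-K1 cells stably expressing human EP1 incubated with compounds and [3H]-PGE2 (3 nM final) for 30 min at 30° C in MES buffer with EDTA and MgCl2, pH 6. Bound radioactivity measured after filtration; IC50 from nonlinear fit of specific binding inhibition.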

SMILES	Ki (EP1 receptors [1]) [nM]	IC50 (EP1 receptors [2]) [nM]
Clc1ccc(OCc2ccccc2)c(Cc2nc(-c3nc4ccc(N5CCCC5)nc4[nH]3)cs2)c1 [Example 137, 2-[2-({5-Chloro-2-[(phenylmethyl)oxy]phenyl}methyl)-1,3-thiazol-4-yl]-5-(1-pyrrolidinyl)-1H-imidazo[4,5-b]pyridinehydrochloride]	< 1000	≤ 1000
O=C(O)c1cccc2nc(-c3csc(Cc4cc(Cl)ccc4OCc4ccccc4)n3)[nH]c12 [Example 139, 2-[2-({5-Chloro-2-[(phenylmethyl)oxy]phenyl}methyl)-1,3-thiazol-4-yl]-1H-benzimidazole-4-carboxylic acid]	< 1000	≤ 1000
CC(C)COc1ccc(Cl)cc1Cc1nc(-c2nc3ccc(Cl)nc3[nH]2)cs1 [Example 140, 5-Chloro-2-[2-({5-chloro-2-[(2-methylpropyl)oxy]phenyl}methyl)-1,3-thiazol-4-yl]-1H-imidazo[4,5-b]pyridinehydrochloride]	< 1000	≤ 31.6
CC(C)COc1ccc(Cl)cc1C(F)(F)c1nc(-c2nc3ccccc3[nH]2)cs1 [Example 141, 2-{2-[{5-chloro-2-[(2-methylpropyl)oxy]phenyl}(difluoro)methyl]-1,3-thiazol-4-yl}-1H-benzimidazole hydrochloride]	> 1000	≤ 1000
CC(C)COc1ccc(Cl)cc1Cc1nc(-c2nc3ccc(N4CCN(C)CC4)cc3[nH]2)cs1 [Example 142, 2-[2-({5-Chloro-2-[(2-methylpropyl)oxy]phenyl}methyl)-1,3-thiazol-4-yl]-5-(4-methyl-1-piperazinyl)-1H-benzimidazole hydrochloride]	< 1000	≤ 31.6
OCc1cccc2nc(-c3csc(Cc4cc(Cl)ccc4OCc4ccccc4)n3)[nH]c12 [Example 143, {2-[2-({5-Chloro-2-[(phenylmethyl)oxy]phenyl}methyl)-1,3-thiazol-4-yl]-1H-benzimidazol-4-yl}methanol hydrochloride]	> 1000	≤ 1000
CC(C)COc1ccc(Cl)cc1Cc1nc(-c2nc3ccc(N4CCOCC4)nc3[nH]2)cs1 [Example 144, 2-[2-({5-Chloro-2-[(2-methylpropyl)oxy]phenyl}methyl)-1,3-thiazol-4-yl]-5-(4-morpholinyl)-1H-imidazo[4,5-b]pyridine]	≤ 31.6	≤ 1000
CC(C)COc1ccc(Cl)cc1Cc1nc(-c2nc3ccc(N4CCCC4)nc3[nH]2)cs1 [Example 145, 2-[2-({5-Chloro-2-[(2-methylpropyl)oxy]phenyl}methyl)-1,3-thiazol-4-yl]-5-(1-pyrrolidinyl)-1H-imidazo[4,5-b]pyridinehydrochloride]	< 1000	≤ 1000
CC(C)COc1ccc(Cl)cc1Cc1nc(-c2nc3ccc(N4CCN(C)CC4)nc3[nH]2)cs1 [Example 146, 2-[2-({5-chloro-2-[(2-methylpropyl)oxy]phenyl}methyl)-1,3-thiazol-4-yl]-5-(4-methyl-1-piperazinyl)-1H-imidazo[4,5-b]pyridinehydrochloride]	< 1000	≤ 31.6
CC(C)COc1ccc(Cl)cc1Cc1nc(-c2nc3ccc(N4CCCCC4)nc3[nH]2)cs1 [Example 147]	< 1000	≤ 1000
CN1CCN(c2ccc3nc(-c4csc(Cc5cc(Cl)ccc5OCc5ccccc5)n4)[nH]c3c2)CC1 [Example 148, 2-[2-({5-Chloro-2-[(phenylmethyl)oxy]phenyl}methyl)-1,3-thiazol-4-yl]-5-(4-methyl-1-piperazinyl)-1H-benzimidazole hydrochloride]	< 1000	≤ 31.6
Clc1ccc(OCc2ccccc2)c(Cc2nc(-c3nc4ccc(N5CCOCC5)cc4[nH]3)cs2)c1 [Example 149, 2-[2-({5-Chloro-2-[(phenylmethyl)oxy]phenyl}methyl)-1,3-thiazol-4-yl]-5-(4-morpholinyl)-1H-benzimidazole hydrochloride]	< 1000	≤ 31.6
